# Source: patent US20080193563A1, “HARNESSING WNT SIGNALING TO RESTRICT HIV REPLICATION” (priority 2006, published 2008)
# Legend:
# [1] = system: IFNγ, GM-CSF and TNFγ receptors on U87MG; assay: Cytokine receptor expression on U87MG by flow cytometry; type: cell-based, human; settings: 24-hour treatment
# Method: U87MG (A) or HFA (B) were left untreated or treated with GM-CSF (50 ng/ml), IFNγ100 ng/ml) or TNFγ100 ng/ml). […] Percent expression of GM-CSF receptor (R), IFNγR, and TNFγR was measured 24 hours post-stimulation by flow cytometry. Data is representative of three experiments. Error bars represent standard deviations of the mean.
# Prior to evaluating if GM-CSF, IFNγ, and TNFγ can augment HIV replication of astrocytes, a question was whether U87MG and HFA express the respective cytokine receptors. U87MG and HFA were treated with or without the respective cytokine for 24 hours and cytokine receptor expression was evaluated by flow cytometry. Approximately 35% of U87MG expressed the IFNγ receptor and a low level of GM-CSF and TNFγ receptors (<8%; FIG. 3A). […] Untreated HFA expressed only low levels of IFNγ receptor (6%) and this expression was abrogated with IFNγ treatment. GM-CSF and TNFγ receptors were not expressed on HFA.
# [2] = system: HIV reverse transcription in U87MG; assay: Early and late HIV reverse transcription in U87MG, real-time PCR; type: cell-based; settings: IFNγ pre-treated 24 h
# Method: FIG. 31 Comparative analysis of early and late HIV reverse transcription (RT) between infected untreated and infected IFN-γ treated astrocytes. U87MG cells were left untreated or treated with IFN-γ prior to HIV infection as described in Materials and Methods. Total DNA was isolated and amplified for tierh early HIV reverse transcription (reverse transcription initiation) using primer pair R and U5 at 24 h postinfection or late HIV transcription using primer pair R and 5NC at 96 h postinfection. (A) Comparison of amplified HIV DNA between untreated and IFN-γ-treated cultures. […] Rn stands for reading normalized, which equals the SyberGreen value divided by the ROX reference dye value.
# Restriction to HIV replication is not at the level of HIV entry and reverse transcription. […] Early HIV reverse transcription was evaluated by real-time PCR at […] post-infection by amplifying with the R/U5 primer pairs, which detect negative-strand “strong-stop” DNA indicative of reverse transcription initiation. […]
# Levels of HIV reverse transcription are similar between untreated and IFN-γ-treated astrocytes. […] Early HIV reverse transcription was evaluated by real-time PCR at 24 h postinfection by amplification with the R/U5 primer pair, which detects negative-strand “strong-stop” DNA indicative of reverse transcription initiation). […]
substance,measurement,setting,value
"IFNγ: cytokine secreted by lymphocytes, activated microglia and astrocytes; used to prime astrocytes",Down-regulation of IFNγ receptor expression,[1],2 fold
same,IFNγ receptor expression after treatment,[1]; untreated approximately 35%,approximately 15%
same,Early HIV reverse transcription DNA (R/U5) vs untreated,[2],similar
same,Late HIV reverse transcription DNA (R/5NC) vs untreated,[2],similar
